The source of these data is publication PMC12525650, “Pharmacokinetic Profile of Extracts from the Chayote (Sechium edule) H387 07 Hybrid and Phytochemical Characterization of Its Segregant H387 M16 for Potential Therapeutic Applications” (Molecules, 2025).

Each structure is given as a SMILES string. Read-outs that look alike come from different tables or passages of the source.

Series [1] in a line: HPLC pharmacokinetics of secondary metabolites in serum/plasma, liver and urine of mice after oral Sechium H387 07 extract. Set-up: species or system female CD-1 mice (Mus musculus L.). The procedure: Pharmacokinetic parameters were evaluated in female CD-1 mice (Mus musculus L.) provided by the vivarium of the Faculty of Higher Studies, Zaragoza, National Autonomous University of Mexico. All mice were clinically healthy, approximately 12 weeks old, and weighed ~30 g. […] Female mice were selected as the available cohort from the institutional vivarium, and their use allowed us to establish baseline pharmacokinetic parameters under standardized conditions. […] Animals were randomly assigned to treatment groups. Treatment allocation and sample collection were blinded. All experimental procedures were approved by the Research Ethics Committee of the Faculty of Higher Studies, Zaragoza (FESZ/CEI/1/1/5/27/23).
For the HPLC quantification of metabolites, concentrations were expressed as µg/mL for serum and urine and as µg/mg of tissue for liver samples. The results were translated into graphical form using the identified metabolites. The Cmax and time to reach maximum concentration (Tmax) of the secondary metabolites were obtained directly from the concentration–time curve.
The area under the plasma concentration–time curve from time zero to the last measurable concentration ( AUC0−t ) was calculated using the linear trapezoidal rule, according to the following formula: AUC0−t=∑i=1n−1Ci+Ci+1/2×ti+1−ti where Ci and Ci+1 are the plasma concentrations at consecutive time points ti and ti+1 . The total area under the curve ( AUC0−∞ ) was obtained as the sum of AUC0−t and the extrapolated area from the last measurable concentration to infinity, calculated as:(1) AUC0−∞=AUC0−t+Clast/kel where Clast is the final observed concentration and kel is the terminal final elimination constant estimated from the slope of the log-linear portion of the concentration–time curve.

For series [2] the following is noted: cited from earlier work.
For series [3] the following is noted: cited from earlier work. The source holds these as a separate data set.
[4] abbreviates: mice, oral extract 8, 125, 250 mg/kg, 1, 6, 24, 48 h.
The mark [5] stands for this setting: mice, liver, oral extract 8, 125, 250 mg/kg, 1, 6, 24, 48 h.
Setting [6] is: mice, serum, oral extract 8, 125, 250 mg/kg, 1, 6, 24, 48 h.
[7] abbreviates: female, CD-1, mouse, in vivo, po, 8 mg/kg.
The mark [8] stands for this setting: mice, plasma, oral extract 8 mg/kg.

As for `COc1ccc([C@@H]2CC(=O)c3c(O)cc(O[C@@H]4O[C@H](CO[C@@H]5O[C@@H](C)[C@H](O)[C@@H](O)[C@H]5O)[C@@H](O)[C@H](O)[C@H]4O)cc3O2)cc1O` [hesperidin], in series [1] (setting [4]), the “urine concentration, change with dose and time” value (shortened to “urine concentration, change”) is “increased under the 8 mg/kg dose at 6 and 24 h”.

`CC(C)(O)/C=C/C(=O)[C@](C)(O)[C@H]1[C@H](O)C[C@@]2(C)[C@@H]3CC=C4[C@@H](C[C@H](O)C(=O)C4(C)C)[C@]3(C)C(=O)C[C@]12C` [CuD, Cucurbitacin D]: in series [1] (female, CD-1, mouse, in vivo, mice, serum/plasma, oral extract 125 mg/kg, read-out: Tmax), the Tmax is 24 h. The “liver concentration, change with dose and time” value (shortened to “liver concentration, change”) in series [1] (setting [5]) was “no significant variations”.

As to `C[C@@H]1O[C@@H](OC[C@H]2O[C@@H](Oc3c(-c4ccc(O)c(O)c4)oc4cc(O)cc(O)c4c3=O)[C@H](O)[C@@H](O)[C@@H]2O)[C@H](O)[C@H](O)[C@H]1O` [Rutin], the “serum concentration, change with dose and time” value (shortened to “serum concentration, change”) in series [1] (setting [6]) is recorded as “marked decrease at the 250 mg/kg dose”.

For the molecule `O=c1cc(-c2ccc(O)cc2)oc2cc(O)cc(O)c12` [Apigenin], in series [2] (reported in rats), the T1/2 is 1.8 to 4.2 h. In addition, in series [1] (setting [7]), the AUC came to 2390 ± 210 ng·h/mL, the AUC(0-t) turned out to be 2120 ng·h/mL, the Clearance is 0.82 L/h/kg and the peak level (Cmax) was 850 ± 70 ng/mL. Besides, in series [1] (setting [7]), the T1/2 entry is “greater than 5.6 h” and the Vd was found to be 3.4 ± 0.5 L/kg. The same molecule gave a half-life in series [1] (female, CD-1, mouse, in vivo, po, 8 mg/kg, T1/2) of 336 ± 18 min. The Tmax in series [1] (female, CD-1, mouse, in vivo, po, 8 mg/kg, Tmax) is 1.5 ± 0.3 h. Besides, in series [1] (setting [6]), the “serum concentration, change” value was “significantly increased with the 125 mg/kg doses at 24 and 48 h”.

`CC(=O)OC(C)(C)CCC(=O)[C@](C)(O)[C@H]1[C@H](O)C[C@@]2(C)[C@@H]3CC=C4[C@@H](C[C@H](O)[C@@H](O)C4(C)C)[C@]3(C)C(=O)C[C@]12C` [CuIIA, cucurbitacin IIA]: in series [1] (setting [5]), the “liver concentration, change” value was “remained significant for up to 48 h with the 250 mg/kg treatment”. Besides, the “serum Tmax” value in series [1] (mice, serum, across all doses (8, 125, 250 mg/kg)) stood at 24 h. The “serum concentration, change” value in series [1] (setting [6]) is given as “transient decrease to near-zero concentrations at 6 h, followed by a marked increase at 24 h”. Also, the “urine concentration, change” value in series [1] (setting [4]) is on record as “high concentrations were observed in urine”. For the same molecule, the “time of absorption (Tmax) in previous reports” value in series [3] is recorded as ~ 20 min.

For `O=c1cc(-c2ccc(O)cc2)oc2cc(O[C@@H]3O[C@H](CO)[C@@H](O)[C@H](O)[C@H]3O)cc(O)c12` [apigenin-7-O-β-D-glucoside, reference compound], the “AUC0−t” value in series [2] (rat, in vivo, iv) was 0.68 to 1.56 µg·h/mL.

For the molecule `O=C1C[C@@H](c2ccc(O)cc2)Oc2cc(O)cc(O)c21` [Naringenin], the “liver concentration, change” value in series [1] (female, CD-1, mouse, in vivo) was “significantly decreased after 24–48 h with the 8 mg/kg dose”.

On to `CC(C)(O)/C=C/C(=O)[C@](C)(O)[C@H]1[C@H](O)C[C@@]2(C)[C@@H]3CC=C4[C@@H](C=C(O)C(=O)C4(C)C)[C@]3(C)C(=O)C[C@]12C` [CuI, cucurbitacin I], for which the “liver concentration, change” value in series [1] (setting [5]) is reported as “no significant variations”. In addition, in series [1] (mice, liver, oral extract 125 and 250 mg/kg), the liver concentration is on record as more than 20 µg/mg. The “serum concentration, change” value in series [1] (setting [6]) is reported as “concentrations remained near the limit of quantification”.

`O=C(CCc1ccc(O)cc1)c1c(O)cc(O)cc1O` [Phloretin]: in series [1] (female, CD-1, mouse, in vivo), the “liver concentration, change” value was “increased significantly with a dose of 125 mg/kg at 6 and 48 h post-treatment”; the “serum concentration, change” value is “decreased between 6 and 24 h at 125 mg/kg”. Further, in series [1] (female, CD-1, mouse, plasma, po, 8 mg/kg, mice, plasma, oral extract 8 mg/kg, Table S1, unit inferred, read-out: Tmax), the Tmax is 2 ± 0.4 h. Besides, in series [1] (female, CD-1, mouse, plasma, po, 8 mg/kg, mice, plasma, oral extract 8 mg/kg, read-out: T1/2 (converted)), the half-life is 252 ± 36 min. In addition, in series [1] (female, CD-1, mouse, plasma, po, 8 mg/kg, mice, plasma, oral extract 8 mg/kg, read-out: Tmax), the Tmax was determined as 4.2 h. Further, the Cmax in series [1] (female, CD-1, mouse, plasma, po, 8 mg/kg, read-out: Cmax) came out at 1120 ng/mL. In addition, in series [1] (female, CD-1, mouse, mice, plasma, oral extract 8 mg/kg, read-out: AUC0−t), the AUC(0-t) was 3450 ± 310 ng·h/mL. In addition, the AUC in series [1] (female, CD-1, mouse, mice, plasma, oral extract 8 mg/kg, read-out: AUC0 ∞) was determined as 6100 ng·h/mL. Moreover, in series [1] (setting [8]), the Clearance was 0.82 L/h/kg and the Vd was found to be 0.95 L/kg.

Turning to `CC(=O)OC(C)(C)/C=C/C(=O)[C@](C)(O)[C@H]1[C@H](O)C[C@@]2(C)[C@@H]3CC=C4[C@@H](C=C(O)C(=O)C4(C)C)[C@]3(C)C(=O)C[C@]12C` [Cucurbitacin E, cucurbitacin E], in series [1] (female, CD-1, mouse, in vivo, po, 8 mg/kg, read-out: Cmax), the Cmax was 420 ng/mL. In series [1] (female, CD-1, mouse, in vivo, mice, plasma, oral extract 8 mg/kg, Table S1, unit inferred, read-out: Tmax), the Tmax came to 2.5 ± 0.3 h. In addition, the AUC(0-t) in series [1] (female, CD-1, mouse, in vivo, mice, plasma, oral extract 8 mg/kg, read-out: AUC0−t) was 1450 ± 110 ng·h/mL. Also, in series [1] (female, CD-1, mouse, in vivo, mice, plasma, oral extract 8 mg/kg, read-out: AUC0 ∞), the AUC was determined as 1800 ng·h/mL. Moreover, in series [1] (female, CD-1, mouse, in vivo, mice, plasma, oral extract 8 mg/kg, read-out: T1/2 (converted)), the half-life was 504 ± 72 min. Besides, the “liver concentration, change” value in series [1] (setting [5]) is recorded as “no significant variations”. In series [1] (setting [8]), the Clearance is 0.65 L/h/kg and the Vd was found to be 4.8 L/kg. The “urine concentration, change” value in series [1] (setting [4]) was “clear increase under the 8 mg/kg treatment”. Moreover, in series [3] (at 2 h post-dose), the peak plasma concentration result was “approximately 0.009 µg/mL”.

Broadly, the Tmax is the time at which the peak concentration occurs. For orientation: Cmax means the maximum level reached in the sampled fluid or tissue.
